Test results reported in US20260015350A1, “AZAQUINAZOLINE PAN-KRAS INHIBITORS” (Mirati Therapeutics, Inc., priority 2022, published 2026).

Assays:
[1] = biological target: T1, KRas^G12D (Homo sapiens, UniProt P01116, G12D); test: KRas binding assay (TR-FRET tracer displacement), KRas G12D
T1 construct: Biotinylated KRas (corresponding to amino acids 1-169, produced at Accelegan Inc.); biotin (biotinylated); purchased Accelegan Inc

[2] = biological target: T2, KRas^G12R (Homo sapiens, UniProt P01116, G12R); test: KRas binding assay (TR-FRET tracer displacement), KRas G12R
T2 construct: Biotinylated KRas (corresponding to amino acids 1-169, produced at Accelegan Inc.); biotin (biotinylated); purchased Accelegan Inc
T2 sequence (P01116 1-169 isoform P01116-2 G12R): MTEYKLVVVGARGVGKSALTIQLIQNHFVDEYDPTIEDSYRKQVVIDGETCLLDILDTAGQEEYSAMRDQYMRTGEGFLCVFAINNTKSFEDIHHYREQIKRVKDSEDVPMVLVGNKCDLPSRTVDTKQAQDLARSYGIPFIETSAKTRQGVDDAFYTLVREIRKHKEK

[3] = biological target: T3, KRas^G12V (Homo sapiens, UniProt P01116, G12V); test: KRas binding assay (TR-FRET tracer displacement), KRas G12V
T3 construct: Biotinylated KRas (corresponding to amino acids 1-169, produced at Accelegan Inc.); biotin (biotinylated); purchased Accelegan Inc
T3 sequence (P01116 1-169 isoform P01116-2 G12V): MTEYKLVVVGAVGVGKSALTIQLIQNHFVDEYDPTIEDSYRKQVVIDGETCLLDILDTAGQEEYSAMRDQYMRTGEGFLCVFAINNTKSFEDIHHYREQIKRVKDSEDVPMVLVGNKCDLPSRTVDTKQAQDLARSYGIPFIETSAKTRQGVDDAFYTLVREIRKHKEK

[4] = test system: KRas-mediated phosphorylation of ERK in AsPC-1 cells; test: Inhibition of KRas-mediated phosphorylation of ERK (Cisbio HTRF pERK), AsPC-1 cells; type: cell-based; conditions: Homo sapiens; for IC50: ASPC1, AsPC-1 cells, HTRF pERK
Procedure, shortened: (§1)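 Compound treatment lasts 3 hrs on 6,000 seeded cells, testing 10 doses from a 10 uM top concentration in 3-fold decrements at 0.8% final DMSO. Trametinib at 0.2 uM defines the Min signal. Detection is HTRF on cold-lysed cell extracts.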

[5] = test system: KRas-mediated phosphorylation of ERK in H727 cells; test: Inhibition of KRas-mediated phosphorylation of ERK (Cisbio HTRF pERK), H727 cells; type: cell-based; conditions: Homo sapiens; for IC50: NCI-H727, H727 cells, HTRF pERK
Procedure, shortened: as §1

[6] = test system: KRas-mediated phosphorylation of ERK in A549 cells; test: Inhibition of KRas-mediated phosphorylation of ERK (Cisbio HTRF pERK), A549 cells; type: cell-based; conditions: Homo sapiens; for inhibition at 0.1 µM: A549, 3 h, single point, 100 nM compound, 3 hrs; for IC50: HTRF pERK
Method: (§2) Inhibition of KRas Phosphorylation of ERK (HTRF) by Exemplary Compounds of Formula (I) Cisbio HTRF Advanced PERK Assay Catalog #64[…] […] Add 10 mL of media to stop trypsinizing. Pipette the cells into a conical bottom 50 mL centrifuge tube and centrifuge 5 min×1000 rpm. […] Re-suspend the cell pellet in media, take a cell count, and then adjust the cell density using fresh media. […] Seed 6,000 cells into cell culture plate with 50 μL media. […] Use Tecan to complete the compound addition. Compounds start from 10 uM top, 3-fold dilution, and 10 doses. The final DMSO concentration is 0.8%. Dispensed 0.2 uM Trametinib as Min control. […] Incubate cell plate for 3 hrs in the incubator. […] Dilute 1 volume of 4× lysis buffer with 3 volumes of deionized water. […] Keep lysis buffer on the ice. […] At the end of the compound treatment, flick-off the media. […] Add 35 μL of lysis buffer per well using a Multidrop Combi. Then place on a plate agitator shaking at 300 rpm at 4° C. for 40 mins. […] Make up the HTRF antibody buffer. For each assay plate, mix 50 μL of d2-conjugate antibody with 950 μL of detection buffer. Similarly, mix 50 μL of Cryptate antibody with 950 μL of detection buffer. Then mix the two diluted antibodies together. […] Dispense 3.4 μL the antibody buffer to wells of an empty assay plate. Seal the plate and centrifuge plate 30 sec×1000 rpm. […] At the end of the 4° C. lysis, centrifuge the lysate plates 3 mins×1500 rpm. […] Use the Bravo to transfer 13.6 μL of lysate from cell culture plate to assay plate. Then incubate assay plate for 2 hrs at room temperature. 8. At the end of incubation, read plate on the Envision after centrifuging plate 30 sec×1000 rpm.

[7] = test system: KRas-mediated phosphorylation of ERK in H358 cells; test: Inhibition of KRas-mediated phosphorylation of ERK (Cisbio HTRF pERK), H358 cells; type: cell-based; conditions: Homo sapiens; for inhibition at 0.1 µM: NCI-H358, 3 h, single point, 100 nM compound, 3 hrs; for IC50: NCI-H358, HTRF pERK
Method: as §2

[8] = test system: KRas-mediated phosphorylation of ERK in H460 cells; test: Inhibition of KRas-mediated phosphorylation of ERK (Cisbio HTRF pERK), H460 cells; type: cell-based; conditions: Homo sapiens; for inhibition at 0.1 µM: NCI-H460, 3 h, single point, 100 nM compound, 3 hrs; for IC50: NCI-H460, HTRF pERK
Method: as §2

[9] = test system: KRas-mediated phosphorylation of ERK in HCT116 cells; test: Inhibition of KRas-mediated phosphorylation of ERK (Cisbio HTRF pERK), HCT116 cells; type: cell-based; conditions: Homo sapiens; for inhibition at 0.1 µM: HCT-116, 3 h, single point, 100 nM compound, 3 hrs; for IC50: HCT-116, HTRF pERK
Method: as §2

T1 sequence (P01116 1-169 isoform P01116-2 G12D): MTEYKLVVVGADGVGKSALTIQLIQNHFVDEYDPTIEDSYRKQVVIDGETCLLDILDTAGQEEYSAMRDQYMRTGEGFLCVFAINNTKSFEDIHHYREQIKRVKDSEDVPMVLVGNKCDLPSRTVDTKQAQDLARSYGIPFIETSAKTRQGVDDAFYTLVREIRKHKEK

| Structure (SMILES) | IC50 [1] | IC50 [2] | IC50 [3] | IC50 [4] | IC50 [5] | inhibition at 0.1 µM [6] | inhibition at 0.1 µM [7] | inhibition at 0.1 µM ([4]; ASPC1, 3 h, single point, 100 nM compound, 3 hrs, AsPC-1 cells) | inhibition at 0.1 µM ([5]; NCI-H727, 3 h, single point, 100 nM compound, 3 hrs, H727 cells) | inhibition at 0.1 µM [8] | inhibition at 0.1 µM [9] | IC50 [6] | IC50 [7] | IC50 [8] | IC50 [9] |
| --- | --- | --- | --- | --- | --- | --- | --- | --- | --- | --- | --- | --- | --- | --- | --- |
| CCc1c(F)ccc2cc(O)cc(-c3ncc4c(N5CCCC6(CCC6)C5)nc(OC[C@@]56CCCN5C[C@H](F)C6)nc4c3F)c12 [Example 549, 5-ethyl-6-fluoro-4-(8-fluoro-2-(((2R,7aS)-2-fluorotetrahydro-1H-pyrrolizin-7a(5H)-yl)methoxy)-4-(6-azaspiro[3.5]nonan-6-yl)pyrido[4,3-d]pyrimidin-7-yl)naphthalen-2-ol] | 7 nM | 8 nM | 4 nM | 328 nM | 208 nM | -6% | 3% | – | – | – | – | – | – | – | – |
| CCc1c(F)ccc2cc(O)cc(-c3ncc4c(N5CCn6cc(C(=O)N(C)C)nc6C5)nc(OC[C@@]56CCCN5C[C@H](F)C6)nc4c3F)c12 [Example 646, 7-(7-(8-ethyl-7-fluoro-3-hydroxynaphthalen-1-yl)-8-fluoro-2-(((2R,7aS)-2-fluorohexahydro-1H-pyrrolizin-7a-yl)methoxy)pyrido[4,3-d]pyrimidin-4-yl)-N,N-dimethyl-5,6,7,8-tetrahydroimidazo[1,2-a]pyrazine-2-carboxamide] | – | – | – | 8480 nM | > 10000 nM | -24% | 2% | -12% | -6% | -9% | -9% | – | – | – | – |
| C=C1CN2CCC[C@@]2(COc2nc(N3C[C@@H]4C[C@H](C3)[C@H](O)C4)c3cnc(-c4cc(O)cc5ccc(F)c(CC)c45)c(F)c3n2)C1 [Example 896, (1R,5R,6R)-3-(7-(8-ethyl-7-fluoro-3-hydroxynaphthalen-1-yl)-8-fluoro-2-(((S)-2-methylenetetrahydro-1H-pyrrolizin-7a(5H)-yl)methoxy)pyrido[4,3-d]pyrimidin-4-yl)-3-azabicyclo[3.2.1]octan-6-ol] | – | – | – | 6 nM | 2 nM | – | – | – | – | – | – | 1 nM | 1 nM | – | – |
| CCc1c(F)ccc2cc(O)cc(-c3ncc4c(N5CC6CNCC6C5CO)nc(OC[C@@]56CCCN5C[C@H](F)C6)nc4c3F)c12 (stereo partly drawn) [Example 890, 5-ethyl-6-fluoro-4-(8-fluoro-2-(((2R,7aS)-2-fluorotetrahydro-1H-pyrrolizin-7a(5H)-yl)methoxy)-4-(1-(hydroxymethyl)hexahydropyrrolo[3,4-c]pyrrol-2 (1H)-yl)pyrido[4,3-d]pyrimidin-7-yl)naphthalen-2-ol] | – | – | – | > 10000 nM | > 10000 nM | – | – | – | – | – | – | > 10000 nM | > 10000 nM | > 10000 nM | > 10000 nM |
| CCc1c(F)ccc2cc(O)cc(-c3ncc4c(N5CC6CCC(CCC(=O)N(C)C)(C6)C5)nc(OC[C@@]56CCCN5C[C@H](F)C6)nc4c3F)c12 (stereo partly drawn) [Example 913, 3-(3-(7-(8-ethyl-7-fluoro-3-hydroxynaphthalen-1-yl)-8-fluoro-2-(((2R,7aS)-2-fluorotetrahydro-1H-pyrrolizin-7a(5H)-yl)methoxy)pyrido[4,3-d]pyrimidin-4-yl)-3-azabicyclo[3.2.1]octan-1-yl)-N,N-dimethylpropanamide] | – | – | – | 580 nM | 571 nM | – | – | – | – | – | – | 246 nM | 146 nM | 112 nM | 211 nM |
| CCc1c(F)ccc2cc(O)cc(-c3ncc4c(N5CCCn6nc(P(C)(C)=O)cc6C5)nc(OC[C@@]56CCCN5C[C@H](F)C6)nc4c3F)c12 [Example 660, (5-(7-(8-ethyl-7-fluoro-3-hydroxynaphthalen-1-yl)-8-fluoro-2-(((2R,7aS)-2-fluorohexahydro-1H-pyrrolizin-7a-yl)methoxy)pyrido[4,3-d]pyrimidin-4-yl)-5,6,7,8-tetrahydro-4H-pyrazolo[1,5-a][1,4]diazepin-2-yl)dimethylphosphine oxide] | 2 nM | 2 nM | 7 nM | 8030 nM | > 10000 nM | -41% | -20% | – | – | – | – | – | – | – | – |
| CCc1c(F)ccc2cc(O)cc(-c3ncc4c(NCC5(C)CC(=O)NC5=O)nc(OC[C@@]56CCCN5C[C@H](F)C6)nc4c3F)c12 (stereo partly drawn) [Example 566, 3-(((7-(8-ethyl-7-fluoro-3-hydroxynaphthalen-1-yl)-8-fluoro-2-(((2R,7aS)-2-fluorotetrahydro-1H-pyrrolizin-7a(5H)-yl)methoxy)pyrido[4,3-d]pyrimidin-4-yl)amino)methyl)-3-methylpyrrolidine-2,5-dione] | 3 nM | < 2 nM | 3 nM | 760 nM | 138 nM | – | – | – | – | – | – | 130 nM | – | 47 nM | 72 nM |
| C=C1CN2CCC[C@]2(COc2nc(N3C[C@@H]4C[C@H](C3)[C@H](O)C4)c3cnc(-c4cc(O)cc5ccc(F)c(CC)c45)c(F)c3n2)C1 [Example 897, (1R,5R,6R)-3-(7-(8-ethyl-7-fluoro-3-hydroxynaphthalen-1-yl)-8-fluoro-2-(((R)-2-methylenetetrahydro-1H-pyrrolizin-7a(5H)-yl)methoxy)pyrido[4,3-d]pyrimidin-4-yl)-3-azabicyclo[3.2.1]octan-6-ol] | – | – | – | 32 nM | 12 nM | – | – | – | – | – | – | 5 nM | 3 nM | – | – |
| CCc1c(F)ccc2cc(O)cc(-c3ncc4c(N5CC6CCC(CC(=O)NC)(C6)C5)nc(OC[C@@]56CCCN5C[C@H](F)C6)nc4c3F)c12 (stereo partly drawn) [Example 914, 2-(3-(7-(8-ethyl-7-fluoro-3-hydroxynaphthalen-1-yl)-8-fluoro-2-(((2R,7aS)-2-fluorotetrahydro-1H-pyrrolizin-7a(5H)-yl)methoxy)pyrido[4,3-d]pyrimidin-4-yl)-3-azabicyclo[3.2.1]octan-1-yl)-N-methylacetamide] | 12 nM | 5 nM | 3 nM | 2380 nM | 1040 nM | – | – | – | – | – | – | – | 461 nM | – | – |
| C[C@@]1(O)CCCN(c2nc(OCC34CCCN3CCC4)nc3c(F)c(-c4ccc(F)c5sc(N)c(C#N)c45)ncc23)C1 [Example 916, (R)-2-amino-7-fluoro-4-(8-fluoro-4-(3-hydroxy-3-methylpiperidin-1-yl)-2-((tetrahydro-1H-pyrrolizin-7a(5H)-yl)methoxy)pyrido[4,3-d]pyrimidin-7-yl)benzo[b]thiophene-3-carbonitrile] | 78 nM | 132 nM | 120 nM | > 10000 nM | > 10000 nM | – | – | – | – | – | – | – | 8970 nM | – | – |
| CCc1c(F)ccc2cc(O)cc(-c3ncc4c(N5CC6COCC(CO)(C5)C6(F)F)nc(OC[C@@]56CCCN5C[C@H](F)C6)nc4c3F)c12 (stereo partly drawn) [Example 645, 4-(4-(9,9-difluoro-1-(hydroxymethyl)-3-oxa-7-azabicyclo[3.3.1]nonan-7-yl)-8-fluoro-2-(((2R,7aS)-2-fluorotetrahydro-1H-pyrrolizin-7a(5H)-yl)methoxy)pyrido[4,3-d]pyrimidin-7-yl)-5-ethyl-6-fluoronaphthalen-2-ol] | 313 nM | 257 nM | 139 nM | 4640 nM | 3720 nM | – | – | – | – | 4% | 6% | – | – | – | – |
| CCc1c(F)ccc2cc(O)cc(-c3ncc4c(N5CCC[C@H](C)C5)nc(OC[C@@]56CCCN5C[C@H](F)C6)nc4c3F)c12 [Example 541, 5-ethyl-6-fluoro-4-(8-fluoro-2-(((2R,7aS)-2-fluorohexahydro-1H-pyrrolizin-7a-yl)methoxy)-4-((S)-3-methylpiperidin-1-yl)pyrido[4,3-d]pyrimidin-7-yl)naphthalen-2-ol] | – | – | – | 198 nM | 240 nM | – | – | – | – | – | – | 216 nM | – | 107 nM | 208 nM |
